{"source": "patent US20240108702A1", "about": "“Use Of Naturally Occurring Cyclic Peptides For Treatment Of SARS-COV-2 Infection” (The University of Southern California, priority 2021, published 2024)", "key": {"TMPRSS2": {"target": "TMPRSS2 (Homo sapiens, UniProt O15393)", "sequence (O15393 whole entry)": "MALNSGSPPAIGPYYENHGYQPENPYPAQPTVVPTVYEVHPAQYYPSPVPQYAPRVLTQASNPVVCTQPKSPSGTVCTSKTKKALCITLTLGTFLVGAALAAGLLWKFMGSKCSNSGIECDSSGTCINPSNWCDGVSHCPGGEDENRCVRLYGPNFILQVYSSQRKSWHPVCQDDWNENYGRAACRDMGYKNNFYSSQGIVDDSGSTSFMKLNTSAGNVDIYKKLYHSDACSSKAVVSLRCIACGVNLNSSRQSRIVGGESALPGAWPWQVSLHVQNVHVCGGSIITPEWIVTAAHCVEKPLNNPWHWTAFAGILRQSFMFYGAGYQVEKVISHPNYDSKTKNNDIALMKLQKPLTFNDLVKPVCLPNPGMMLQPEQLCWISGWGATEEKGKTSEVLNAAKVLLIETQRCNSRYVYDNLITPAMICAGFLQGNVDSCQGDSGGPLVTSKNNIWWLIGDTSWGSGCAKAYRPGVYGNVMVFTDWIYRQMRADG", "assay": "Cellular TMPRSS2 inhibition assay in Caco-2 cells", "format": "cell-based", "design": "using Caco-2 and Calu3 cells, both of which express surface TMPRSS2; endogenous in cells; host or cells: Caco-2 cells", "method": "Caco-2 cells (1×10^5 per well) were incubated in 96 well plates with 0 to 50 μg/ml of the indicated peptide in the presence of a TMPRSS2 substrate (Boc-Leu-Gly-Arg-AMC) in 50 mM Tris-HCl, pH 7.4. Substrate conversion was monitored in a fluorescence plate reader for 2 hours and inhibition of enzyme activity was expressed relative to a solvent control.\nTMPRSS2 inhibition assays. Peptides (0-50 μg/ml) were tested for their inhibitory activities against TMPRSS2 in cellular assays using Vero E6 cells, Caco-2 cells, or Calu-3 cells using standard conditions. TMPRSS2 activity was assayed in real time for 120 min by monitoring the cleavage of the TMPRSS2 substrate, Boc-Leu-Gly-Arg-AMC. Following the 2 h enzyme assay, cells were evaluated for viability using the CellTiter-Glo cellular toxicity assay."}, "[1]": {"assay": "Single i.v. bolus PK in a vervet monkey (pilot safety study)", "format": "in vivo, vervet/African green monkey (Chlorocebus aethiops sabaeus)", "conditions": "single 3 mg/kg i.v. bolus", "method": "Vervet monkey studies: As a pilot safety study, a single dose of Peptide 1 (SEQ ID NO. 1) at 3 mg/kg was administered to an adult male vervet/African green monkey (Chlorocebus aethiops sabaeus) via i.v. bolus. Serial blood samples were collected at 0.5, 1, 4, 8, 24, 48, 72, 96, 120, and 192 h post-administration.\nBioanalytical analysis: Clarified plasma samples from mice were directly diluted into 5% formic acid/5% acetonitrile. Quantitative analysis of Peptide 1 (SEQ ID NO. 1) was performed by LC-MS/MS with reverse-phase liquid chromatography (XBridge™ BEH phenyl 3.5 μm 3×100 mm column, Waters #186003328) on an Acquity™ H-Class UPLC (Waters) coupled to a Xevo™ TQ-S tandem electrospray mass spectrometry running MassLynx™ V4.1 (Waters). Quantitative mass spectroscopy was performed by multiple-reaction monitoring transition 417.32>517.21, with the area under the curve determined by TargetLynx™ (Waters). A synthetic theta defensin-like peptide was used as an internal standard (IS). The lower limit of quantification (LLOQ) of the assay was 1 ng/mL. Intra- and inter-assay precision (percent coefficient of variation [CV]) was ≤3%, and intra and interassay accuracy (% relative error) was ≤5%. Plasma Peptide 1 (SEQ ID NO. 1) concentration analyses for rats and cynomolgus monkey studies were performed at MicroConstants (San Diego, CA) by HPLC using a Mac-Mod™ Analytical ACE C4 column. The mobile phase was nebulized using heated nitrogen in Z-Spray source/interface set to electrospray positive ionization mode, and the compound was detected using MS/MS (LLOQ=10.0 ng/mL). Details of the method are summarized in the MicroConstants method No. MN20038. Clarified plasma samples from a serially sampled vervet were quantified by ultra-performance liquid chromatography Waters Acquity H-Class UPLC. […] Peptide 1 (SEQ ID NO. 1) peak and mass confirmation was performed on post PDA eluent using a Micromass Quattro Ultima™ mass spectrometer with MassLynx™ 4.1 (Waters). The lower limit of quantitation (LLOQ) ranged from 10-30 ng/mL (determined by sample background) to an upper limit of 50 ug/mL. RTD-2 (10 ug/mL) was used as an internal standard. Intra- and interassay precision (% coefficient of variation [CV]) was ≤3%, and intra and interassay accuracy (% relative error) was ≤5%.\nPharmacokinetic analysis: Non-compartmental analysis (NCA) was performed using Phoenix WinNonlin™ (version 8.3.1, Certara USA, Inc.; Princeton NJ) to determine the PK parameters in mice, rats, cynomolgus monkeys, and the vervet. Nominal sampling times were used in the analysis, and data below the lower limit of quantification of the assay were excluded from the analysis. The maximum plasma concentration (Cmax) was determined from visual inspection of the data. In addition, the following parameters were calculated: terminal elimination rate constant (λz), area under the curve extrapolated to infinity (AUC0-∞), area under the curve to dosing interval (AUCτ), mean residence time (MRT), clearance (CL), and volume of distribution at steady state (Vss). AUC was calculated using the linear up, log down method, and the λz was calculated using up to the last four data points of the log-linear terminal phase of the concentration-time profile. Due to sparsely sampled data in mice and rats, the sparse sampling calculation methodology in Phoenix WinNonlin™ was used, which generated a single estimate without standard error for all parameters, except for Cmax. For rats and cynomolgus monkeys, all parameters were calculated using sampling times relative to the beginning of the i.v. infusion."}, "[2]": {"conditions": "cynomolgus"}}, "note": "Like-named read-outs stand apart in the source and are kept apart here. Where a SMILES comes first, the peptide text is derived from it. Bridges are numbered along the chain shown (N, C = ends)."}
{"smiles": "CC[C@H](C)[C@@H]1NC(=O)[C@@H]2CSSC[C@H](NC(=O)[C@H](CCCNC(=N)N)NC(=O)[C@@H]3CSSC[C@H](NC1=O)C(=O)N[C@@H]([C@@H](C)O)C(=O)N[C@@H](CCCNC(=N)N)C(=O)NCC(=O)N[C@@H](Cc1ccccc1)C(=O)N3)C(=O)N[C@@H](CC(C)C)C(=O)N[C@H]1CSSC[C@H](NC(=O)[C@H](C(C)C)NC(=O)CNC(=O)[C@H](CCCNC(=N)N)NC(=O)[C@H](CCCNC(=N)N)NC1=O)C(=O)N[C@@H](CCCNC(=N)N)C(=O)N2", "note": "[Peptide 1] (cyclo(GFCRCLCRRGVCRCICTR); disulfide 3-16, 5-14, 7-12)", "values": [{"measurement": "IC50", "setting": "TMPRSS2", "value": "3.12 to 3.84", "unit": "µM"}, {"measurement": "AUC", "setting": "[1]; male, monkey, plasma, iv", "value": 21900, "unit": "ng·h/mL"}, {"measurement": "AUC(0-inf)", "setting": "[1]; male, monkey, plasma, iv", "value": 22100, "unit": "ng·h/mL"}, {"measurement": "Cmax", "setting": "[1]; male, monkey, plasma, iv", "value": 5190, "unit": "ng/mL"}, {"measurement": "MRT", "setting": "[1]; male, monkey, plasma, iv", "value": 4.71, "unit": "h"}, {"measurement": "clearance", "setting": "[1]; male, monkey, plasma, iv", "value": 2.27, "unit": "mL/min/kg"}, {"measurement": "Vd", "setting": "[1]; male, monkey, plasma, iv, read-out: Vss", "value": 0.639, "unit": "L/kg"}, {"measurement": "λz", "setting": "[1]", "value": 0.204, "unit": "h⁻¹"}, {"measurement": "λz", "setting": "[2]; 0.3 mg/kg i.v., Day 1, mean", "value": 0.523, "unit": "h⁻¹"}, {"measurement": "λz", "setting": "[2]; 1 mg/kg i.v., Day 1, mean", "value": 0.251, "unit": "h⁻¹"}, {"measurement": "λz", "setting": "[2]; 3 mg/kg i.v., Day 1, mean", "value": 0.078, "unit": "h⁻¹"}, {"measurement": "accumulation, mean AUCτ Day 10 vs mean AUC0-∞ Day 1", "setting": "[2]; 5 mg/kg", "value": "approximately 1.4 fold"}, {"measurement": "λz", "setting": "[2]; 5 mg/kg i.v., Day 1, mean", "value": 0.323, "unit": "h⁻¹"}, {"measurement": "λz", "setting": "[2]; 5 mg/kg/day i.v., Day 10, mean", "value": 0.157, "unit": "h⁻¹"}, {"measurement": "accumulation, mean AUCτ Day 10 vs mean AUC0-∞ Day 1", "setting": "[2]; 10 mg/kg", "value": "~1.5", "unit": "fold"}, {"measurement": "λz", "setting": "[2]; 10 mg/kg i.v., Day 1, mean", "value": 0.192, "unit": "h⁻¹"}, {"measurement": "λz", "setting": "[2]; 10 mg/kg/day i.v., Day 10, mean", "value": 0.120, "unit": "h⁻¹"}, {"measurement": "λz", "setting": "[2]; 15 mg/kg i.v., Day 1, mean", "value": 0.149, "unit": "h⁻¹"}, {"measurement": "λz", "setting": "[2]; 15 mg/kg/day i.v., Day 4, mean", "value": 0.072, "unit": "h⁻¹"}, {"measurement": "λz", "setting": "[2]; 15 mg/kg/day i.v., Day 7, mean", "value": 0.071, "unit": "h⁻¹"}, {"measurement": "λz", "setting": "[2]; 15 mg/kg/day i.v., Day 10, mean", "value": 0.078, "unit": "h⁻¹"}, {"measurement": "time plasma concentrations detectable post end of infusion", "setting": "[2]; single dose of 0.3 or 1 mg/kg", "value": "up to 12 h"}]}
